From patent US20090319044A1, “Methods and Compositions for Improving the Incorporation of Orthopaedic and Orthodontic Implants” (priority 2006, published 2009)

How the values were obtained:
[1] = test system: RAW 264.7 mouse macrophage-like cells (osteoclast precursors); assay: Cell death assay (annexin V-FITC / propidium iodide flow cytometry); type: cell-based; settings: 50 μM zoledronate, 24 hours
Experimental: MC3T3 cells, which are well-established mouse calvarial cells of osteoblastic lineage, and RAW 264.7 mouse macrophage-like cells, which are well-known to form osteoclasts, were purchased from the American Type Culture Collection and Tissue (Manassas, Va.). MC3T3 and RAW 264.7 cells were grown in Dulbecco's Modified Eagle Medium supplemented with 10% fetal bovine serum, 100 μ/mL penicillin, […] streptomycin, and 0.1% fungizone (amphotericin B). The cells were kept at 37° C. in a humidified atmosphere of 5% CO2 and 95% air.
Cell number was measured, and the cells were centrifuged and resuspended in binding buffer (A.G. Scientific, San Diego, Calif.) to a final cell density of 5×10^5 cells/mL. […] of annexin V-FITC (A.G. Scientific, San Diego, Calif.) was added to […] of cell suspension and incubated for 10 minutes. The cells were centrifuged, washed with PBS and resuspended again in […] of binding buffer. […] of 20 mg/mL propidium iodide (A.G. Scientific, San Diego, Calif.) was added to the cell suspension, and flow cytometry was performed using a FACS Calibur (Becton Dickson, Franklin Lakes, N.J.). Monoparametric cytograms of annexin V-FITC fluorescence (FL1) versus number of events were created using the CellQuest program gating for living cells and excluding dead cells on the basis of their propidium iodide uptake.

[2] = test system: rodent osteolysis model (UHMWPE wear debris, femur); assay: First in vivo study: Faxitron and micro-CT imaging of osteolysis around implants; set-up: species or system rat; settings: 24 weeks, vs HA-coated control
Text: (§1) More particularly, sterile ultrahigh molecular weight polyethylene (UHMWPE) wear debris particles (0.5 cc, 0.1-3 micron particle size) were introduced into the intramedullary cavity of bilateral femurs of 8 rats, which served as the control group in this example. The particles were introduced after reaming the femurs with an 18 gauge needle at the knee joint. Sterile wear debris particles were used in this example to stimulate a wear debris reaction and promote osteolysis. Hydroxyapatite-coated plastic pins and hydroxyapatite-coated titanium pins (1.5 mm×20 mm, Stryker, Kalamazoo, Mich.) were then inserted into the intramedullary canal of the right femur and left femur, respectively.
(§2) The test group, which consisted of 8 rates, also had 0.5 cc of sterile UHMWPE wear debris particles introduced into the femoral intramedullary canal after reaming with an 18 gauge needle at the knee joint.
The rats of the test and control groups were sacrificed at 24 weeks following insertion of the pins and the femurs were retrieved. Faxitron radiographs (Faxitron, Wheeling, Ill.) of the femurs taken from the test and control rats were obtained. […] The femurs with plastic pin implants (the right femurs) were imaged by micro-CT (Stratec XCT-3000, Stratec Medizintechnik GmbH, Pforzheim, Germany).

[3] = test system: rodent osteolysis model (UHMWPE wear debris, femur); assay: First in vivo study: pull-out strength testing of titanium pins; set-up: species or system rat; settings: 24 weeks
Text: as §1, §2
Incorporation of the implants by the host bone was evaluated by “pull-out strength testing” of the titanium pins (left femurs) (MTS 858 Bionix, MTS Systems Corporation, Minneapolis, Minn.). Such “pull-out strength testing” measures the amount of force (i.e., pull force) that must be applied to displace (or remove) the implant from the bone.

[4] = test system: polyethylene particle-induced osteolysis rodent femur model; assay: Second in vivo study: dual energy X-ray absorptiometry (DXA); set-up: species or system Sprague-Dawley rats; bone area (DXA): unit not given here; settings: HA-coated nail soaked in 50 μM zoledronate, 6 weeks and 6 months pooled
Text: (§3) Experimental Design and Surgical Procedure. In this example, a polyethylene particle-induced osteolysis rodent femur model was used to examine the advantages of using a HA-zoledronate composite on the implant surface for osseous integration and implant stability in the presence of UHMWPE particles. Two critical parameters were examined, namely, peri-implant bone quality (osteolysis) and osseointegration (implant stability).
All procedures involving animals were approved by the Institutional Animal Care and Use Committee in accordance with the Association for the Assessment and Accreditation of Laboratory Animal Care guidelines (Columbia University Animal Proctocol AC-AAM5306). In this example, a rodent femur intramedullary nailing model was used with UHMWPE wear debris particles instilled into the intramedullary canal after reaming the femur to stimulate a wear debris reaction. Thirty-two six-month-old adult male Sprague-Dawley rats (weight, 400-500 gm) were purchased (Charles Laboratory, Cambridge, Mass.).
(§4) The 32 rats were divided into two study groups, each composed of 16 rats. Sixteen randomly selected rats served as a control group, which received HA-coated nails. […] Eight rats in each group were sacrificed at 6 weeks following the intramedullary nailing of HA-coated implants and another 8 rats from each group were sacrificed 6 months following the surgery.
After induction of general anesthesia using ketamine (60 mg/kg) and xylazine (5 mg/kg), hair over the knee was removed with a clipper. Right and left knee regions were prepared with 70% alcohol and 1% Betadine solution. A one centimeter longitudinal skin incision was made over the anterior aspect of the distal femur. […]
(§5) In the control group, a radiolucent UHMWPE intramedullary nail, which was coated with HA, was implanted into the right distal femur in a retrograde manner, while a HA-coated titanium intramedullary nail was implanted into the left distal femur. […] Activity level, food intake, the condition of the surgical wound, and clinical signs of infection were monitored daily. […]

[5] = test system: polyethylene particle-induced osteolysis rodent femur model; assay: Second in vivo study: micro-CT periprosthetic bone area; set-up: species or system Sprague-Dawley rats; settings: HA-coated UHMWPE nail soaked in 50 μM zoledronate; right femora; times pooled; p<0.0001 vs control
Text: as §3
as §4, with “surgery. […]” for “surgery.”
as §5
Micro-computed Tomography (micro-CT). The right femura with UHMWPE pins were imaged using a quantitative CT (Stratec XCT-3000), running the XCT Series software, version 5.21 (Stratec Medizintechnik GmbH, Pforzheim, Germany). […]

[6] = test system: polyethylene particle-induced osteolysis rodent femur model; assay: Second in vivo study: biomechanical pull-out testing; set-up: species or system Sprague-Dawley rats
Text: as §3, §4
After induction of general anesthesia using ketamine (60 mg/kg) and xylazine (5 mg/kg), hair over the knee was removed with a clipper. Right and left knee regions were prepared with 70% alcohol and 1% Betadine solution. A one centimeter longitudinal skin incision was made over the anterior aspect of the distal femur. A medial parapatellar approach was made to expose the intercondylar notch with the knee in flexion. An entry hole was made with a 18-gauge needle. The distal rat femora were reamed with an 18-gauge needle, and then Ceridust® UHMWPE particles (0.1 mL of 50 vol. %; 0.1 to 3 micron in size; Clariant GmbH, Germany) were introduced into the intradmedullary canal prior to implantation.
In the control group, a radiolucent UHMWPE intramedullary nail, which was coated with HA, was implanted into the right distal femur in a retrograde manner, while a HA-coated titanium intramedullary nail was implanted into the left distal femur. The joint capsule was repaired using a 2-0 Vicryl® suture (Johnson & Johnson, New Brunswick, N.J.). The skin was repaired with metal staples. Rats were allowed weight bearing as tolerated in their cages, while subcutaneous injections of buprenorphine (0.05 mg/kg) were given once a day for two post-operative days. Activity level, food intake, the condition of the surgical wound, and clinical signs of infection were monitored daily.
The purpose of using the UHMWPE nail was to minimize imaging artifacts inherent in metal implants for a more accurate analysis of dual energy x-ray absorptiometry (DXA) and microcomputed tomography (micro-CT) analyses, which are describe below. The metallic nail was used for biomechanical testing. The intramedullary nails, 1.4 mm in diameter and 20 mm in length, were custom-made for this study (Stryker, Mahwah, N.J.).
Biomechanical Testing. The left femora of both the 6-week and 6-month control and treatment groups were subjected to biomechanical testing following the imaging studies described herein. […]

[7] = test system: MC3T3 cells; assay: Cytokine gene expression after A23187 treatment (Quantitative-RT PCR); type: cell-based; settings: 1 to 6 hours after stimulation, relative to controls
Experimental: Wear particles and calcium signaling induce cytokine expression in macrophages and osteoblasts. Cytokine gene expression was measured following A23187 treatment in MC3T3 cells by Quantitative-RT PCR. RNA was isolated from the cells using an RNeasy Mini Kit (Qiagen, Valencia, Calif.), and Quantitative-RT PCR was performed using a SYBR Green master mix (Roche, Ind.).

[8] = HA-coated titanium nail soaked in 50 μM zoledronate, left femora, times pooled, p<0.0001 vs control

Compound | apoptosis in RAW cells [1] | osteolysis around plastic implants (micro-CT) ([2]; HA-coated plastic pins presoaked in zoledronate 15 minutes, right femur) | osteolysis around titanium implant (Faxitron radiographs) ([2]; HA-coated titanium pins presoaked in zoledronate 15 minutes, left femur) | peak force to extract the titanium pin implants ([3]; zoledronate-treated HA-coated titanium pins vs control, p<0.0001) | pullout energy ([3]; zoledronate-treated HA-coated titanium pins, p=0.0085 vs control) | bone mineral content (DXA) ([4]; p<0.0001 vs control) | bone mineral density (DXA) ([4]; p<0.0001 vs control) | bone area (DXA) ([4]; p=0.1222 vs control) | amount of bone mass in the periprosthetic area (micro-CT) [5] | increase in total energy to pull-out over control ([6]; 6-month group) | increase in total energy to pull-out over control ([6]; 6-weeks group) | average peak pullout force [6, 8] | energy required to completely pull the pin out of the bone [6, 8] | COX-2 expression [7] | TNF-alpha expression [7]
zoledronate | 100% | not around such implants in the test rats | not around the titanium implants in the test rats | statistically higher | 5.71±3.42 N-m | 0.417 ± 0.064 g | 0.328±0.036 g/cm^2 | 1.265±0.081 | 2.388±0.960 mm^2 | 170.7% | 542.8% | 241.0±95.1 N | 521.6±293.8 N-mm |  | 
CNc1ccc2oc(C[C@H]3O[C@@]4(CC[C@H]3C)O[C@H]([C@H](C)C(=O)c3ccc[nH]3)[C@H](C)C[C@H]4C)nc2c1C(=O)O [A23187] |  |  |  |  |  |  |  |  |  |  |  |  |  | increase | increase
